# Key:
# [1] = Rate of urinary excretion of a single daily dose of vitamin C, every micturition assayed (DCIP assay); format: in vivo, human
# Experimental: In order to determine how rapidly vitamin C is excreted, several individuals took 2 grams of vitamin C daily (single dose) for 8 consecutive days, and collected samples and measured the volume of every micturition during the first and last day. The experiment was repeated with the same individuals after a seven-day rest. Each sample was analyzed to determine the time period, concentration range, and total urinary excretion of vitamin C. The results arc shown in Fig. 2 for three representative individuals. Vitamin C concentration in the urine increased after 4 hours from time of intake and remained elevated for a total of 12 hours, consistent with the hypothesis that vitamin C levels in the body are not elevated for an entire 24 hour period by a single daily dose.
# (§1) Vitamin C was assayed by the 2,6-dichlorophenolindophenol (DCIP) assay (see Omaye, T. S. et al. "Selected Methods for the Determination of Ascorbic Acid in Animal Cells," in Methods Enzymol.: Vitamins and Coenzymes, Vol. 62, edited by McCormick, D. B. and L. D. Wright, New York, Academic Press, 1979, pp. 3-11). Samples diluted to 0-40 µg ascorbic acid with 5% phosphoric acid were assayed in a citrate/acetate buffer by reaction with DCIP, and the color at 520 nm compared with standards. Samples were assayed in duplicate and each experiment was repeated.
# Fig. 2 illustrates the effect of two grams of daily single-dose vitamin C taken orally for eight days, followed by six days with no intake, and then by eight more days of two grams taken daily in a single dose. Each micturition during the first and last 24 hours of each eight-day period was collected and assayed to determine the total mass of vitamin C excreted. Figures 2a-2c represent excretion from three different individuals.
# [2] = Effect of twice-daily doses of vitamin C on urinary output (DCIP assay); format: in vivo, human; conditions: for urinary excretion: one individual
# Experimental: Twice-daily doses of 500 mg were sufficient to elevate vitamin C in the urine continuously as shown for 5 individuals in Fig. 4.
# as §1
# In order to achieve such sustained presence of vitamin C in urine, it is instead necessary to take it at least twice daily, as shown in Fig. 3. Different dosages (from 0.25 to 2.0 grams) of vitamin C were administered to a representative subject every 12 hours, at times 0 and 12 hour in the figure, on four separate days of a four week period. The mass of vitamin C present in the urine was measured at every micturition. The individual was tested one day of the week for four consecutive weeks with progressively increasing dosages followed by six-day periods of rest. As illustrated by the figure, taking at least 500 mg twice daily led to continuously elevated levels of vitamin C in the urine tested.
# Each micturition during the entire 24 hours was collected and the total mass of vitamin C excreted by each subject was measured by the DCIP assay. In yet another experiment, two daily doses of 0.5 grams of vitamin C were taken daily for 8 days, then no pills were taken for a week, and then 0.5 g daily were taken again for another 8 days. Each micturition during the first and last 24 hr of each 8 day period was collected and assayed to determine the total mass of vitamin C excreted.
# [3] = Effect of single daily dose of vitamin C on total 24-hour urinary excretion (DCIP assay); format: in vivo, human
# Experimental: In order to determine how daily dosages related to total excretion and whether high daily doses would alter the rate of excretion after a week, groups of test subjects took either 0, 0.25, 1, or 2 gram doses of vitamin C at 8 am daily for 8 consecutive days. All urine was collected and pooled on day 1 and on day 8. The concentration was assayed and the total amount of vitamin C excreted during the 24-hour period was determined, as shown in Fig. 1.
# as §1
# Vitamin C was administered daily to five individuals at 8 am for eight consecutive days. All urine for each individual was collected during the first and last 24-hour periods and the total amount of vitamin C excreted in the urine was determined by DCIP assay.
# [4] = 500 mg dose, average person, within the first 12 hr after ingestion; cited from earlier work
structure (smiles),measurement,setting,value
"O=C1O[C@H]([C@@H](O)CO)C(O)=C1O [vitamin C, ascorbic acid]",share of ingested vitamin C detected in the urine,"[1]; 2 grams daily, single dose",only a small percentage
same,"excretion pattern, first versus last day","[1]; 2 grams daily, single dose, 8 consecutive days",No noticeable difference
same,time from intake after which vitamin C concentration in the urine increased,[1]; in vivo,4 h
same,total time vitamin C concentration in the urine remained elevated,[1]; in vivo,12 h
same,urinary excretion,[2]; 250 mg every 12 hours,did not cause detectable excretion in amounts exceeding normal quantities
same,urinary excretion,[2]; 500 mg or higher (up to 2000 mg) every 12 hours,continuously-detectable elevated levels of excretion
same,vitamin C in the urine,"[2]; 500 mg twice daily for a week, first and last day",remains continuously elevated
same,rate of urinary excretion versus daily dose,"[3]; 0, 0.25, 1 or 2 gram doses at 8 am daily, 24-hour pooled urine",increased with increasing daily doses
same,intake rate at which a consistently elevated urinary level (greater than SD) begins,[3]; in vivo,250-500 mg per day
same,one-time dose necessary for detectable excretion,[3]; in vivo,500 mg
same,vitamin C levels in urine,[3]; in vivo,no detectable vitamin C levels in urine
same,amount excreted on day 8 compared with day 1,"[3]; single daily dose for 8 consecutive days, 24-hour pooled urine",similar
same,fraction of dose absorbed into the body,[4],about 60%

# Source: patent EP0833161A1, “Method for maintaining a continuously-saturated level of ascorbic acid in a patient's body” (Ordman, Alfred B., priority 1996, dated 1998)
